Experimental data reported in US10709765B2, “Composition for inhibiting survival or growth of tubercle bacillus by adjusting polarization of macrophage, and method using same” (priority 2016, dated 2020).
Read-outs that look alike come from different tables or passages of the source.

Test system: Mycobacterium tuberculosis
Assay type: cell-based
[1] = anti-tuberculosis drug alone, […]

SMILES	number of intracellular Mycobacterium tuberculosis	number of intracellular Mycobacterium tuberculosis [1]
CC[C@@H](CO)NCCN[C@@H](CC)CO [Ethambutol]	the number of Mycobacterium tuberculosis was reduced	
NNC(=O)c1ccncc1 [Isoniazid]		the number of Mycobacterium tuberculosis was reduced
NC(=O)c1cnccn1 [Pyrazinamide]		the number of Mycobacterium tuberculosis was reduced
